Patent US9181161B2, “Use of dicyclohexylmethanol derivatives having antimicrobial properties” (MERCK PATENT GmbH, priority 2012, dated 2015)

Experiments:
Type in all cases: cell-based
[1] = system: Staphylococcus epidermidis (ATCC 12228); test: Determination of the bacteriostatic action, microbe count after incubation; conditions: for Final microbe count: sample 2.0% in water/ethanol (12% of ethanol), mixed 1:1 with suspension, 35° C., 24 h or 48 h, initial count 1.6 × 10^4
Description: (§1) For sample preparation, substances I-1 and I-5 being investigated are homogeneously dispersed in an amount of 2.0% in a water/ethanol mixture (12% of ethanol) (=sample). A suspensions of Staphylococcus epidermidis (ATCC 12228) having an optical density of 1.0 in CASO broth (Merck 1.05459) is diluted 1:10000 with CASO broth. 500 μl of sample are added to […] of microorganism suspension, and the mixture is incubated at 35° C. for 24 h or 48 h. After the incubation, the test batches are diluted to −6 in 10 unit steps, and 0.1 ml of each is plated-out on CASO agar (Merck 1.05458) and incubated at 35° C. for 24 h.
(§2) In order to determine the initial microbe count, 0.1 ml of the bacteria suspension used are plated-out on CASO agar (Merck 1.05458) and incubated at 35° C. for 24 h.
(§3) The colonies are subsequently counted, and the microbe count per ml is determined compared with the negative control (12% of ethanol in water).
(§4) The concentrations indicated are the final use concentrations. In order to prepare the stock solution, double the final concentration are prepared in the solvent indicated. This is subsequently diluted 1:2 with the corresponding microbe suspension. In the case of Aspergillus brasiliensis, the microbe count determination is exceptionally carried out after 48 h, in the case of Malassezia furfur after 72 h.

[2] = system: Propionibacterium acnes (ATCC 6919); test: Microbe count after incubation, carried out in accordance with Example 1; conditions: for Δlog: t24 h vs t0; for Final microbe count: as Example 1, sample 2.0% in water/ethanol (12% of ethanol), initial count 8.3 × 10^4
Description: as §1, §2, §3
The experiment is carried out in accordance with Example 1. Instead of the action on Staphylococcus epidermidis, the action of substances I-1 and I-5 on the test microbe Propionibacterium acnes is investigated.
as §4

Aspergillus brasiliensis = test: Microbe count after incubation (Example 3); conditions: 1.0% final conc., H2O (12% of ethanol)
Description: as §1, §2, §3, §4

Candida albicans = test: Microbe count after incubation (Example 3); conditions: 1.0% final conc., H2O (12% of ethanol)
Description: as §1, §2, §3, §4

Corynebacterium xerosis = test: Microbe count after incubation (Example 3); conditions: 0.5% final conc., H2O
Description: as §1, §2, §3, §4

Malassezia furfur = test: Microbe count after incubation (Example 3); conditions: 1.0% final conc., H2O
Description: as §1, §2, §3, §4

Salmonella enterica = test: Microbe count after incubation (Example 3); conditions: 0.5% final conc., H2O
Description: as §1, §2, §3, §4

Staphylococcus aureus = test: Microbe count after incubation (Example 3); conditions: 1.0% final conc., H2O (12% of ethanol)
Description: as §1, §2, §3, §4

Row | Compound | Microbe count t24 h ([1]; 0.5% final conc., H2O (12% of ethanol), t0 1.6 × 10^4) | Δlog ([1]; 0.5% final conc., H2O (12% of ethanol), t24 h vs t0) | Final microbe count [1] | Microbe count t24 h ([2]; 0.25% final conc., H2O, t0 5.4 × 10^5) | Δlog ([2]; 0.25% final conc., H2O) | Microbe count t24 h ([2]; 0.5% final conc., H2O (12% of ethanol), t0 8.3 × 10^4) | Δlog ([2]; 0.5% final conc., H2O (12% of ethanol)) | Final microbe count [2] [CFU/ml] | Microbe count t24 h (Aspergillus brasiliensis; count after 48 h, t0 8.0 × 10^2) | Δlog (Aspergillus brasiliensis; count after 48 h vs t0) | Microbe count t24 h (Candida albicans; t0 6.0 × 10^3) | Δlog (Candida albicans; t24 h vs t0) | Microbe count t24 h (Corynebacterium xerosis; t0 1.0 × 10^6) | Δlog (Corynebacterium xerosis; t24 h vs t0) | Microbe count t24 h (Malassezia furfur; count after 72 h, t0 4.0 × 10^2) | Δlog (Malassezia furfur; count after 72 h vs t0) | Microbe count t24 h (Salmonella enterica; t0 1.0 × 10^6) | Δlog (Salmonella enterica; t24 h vs t0) | Microbe count t24 h (Staphylococcus aureus; t0 7.2 × 10^4) | Δlog (Staphylococcus aureus; t24 h vs t0)
1 | OC1CCC(C(O)C2CCCCC2)CC1 (stereo not shown) [Substance I-1, 4-(cyclohexylhydroxymethyl)cyclohexanol] | 7.4 × 10^3 | −0.34 | 7.4 × 10^3 CFU/ml | 2.4 × 10^5 | −0.35 | 0 | −4.92 | 0 | 0 | −2.90 | 0 | −3.78 | 1.3 × 10^6 | +0.11 | 0 | −2.60 | 5.1 × 10^6 | +0.71 | 0 | −4.86
2 | COC1CCC(C(O)C2CCCCC2)C(O)C1 (stereo not shown) [Substance I-5, 2-(cyclohexylhydroxymethyl)-5-methoxy-cyclohexanol] | – | – | 7.0 × 10^3 CFU/ml | – | – | – | – | 0 | – | – | – | – | – | – | – | – | – | – | – | –
